Results published in patent US20230174667A1 (priority 2020, published 2023).

B1: recombinant SDC4: recombinant SDC4, RnD Systems, Cat. no. 2918-SD (protein, UniProt P31431 19-198, looked up)
Syndecan-4: ESIRETEVIDPQDLLEGRYFSGALPDDEDVVGPGQESDDFELSGSGDLDDLEDSMIGPEVVHPLVPLDNHIPERAGSGSQVPTEPKKLEENEVIPKRISPVEESEDVSNKVSMSSTVQGSNIFERTEVLAALIVGGIVGILFAVFLILLLMYRMKKKDEGSYDLGKKPIYKKAPTNEFYA

How the values were obtained:
[1] = tested on: NF-κB; test: Inhibition of SARS-CoV-2-induced NF-κB activation in A549/NF-κB-luc cells (luciferase); format: cell-based, human
[2] = tested on: heat-inactivated SARS-CoV-2; test: Inhibition of SARS-CoV-2 uptake into RAW 264.7 murine macrophages (flow cytometry); format: cell-based; conditions: co-administered with SARS-CoV-2
[3] = tested on: NF-κB; test: Inhibition of SARS-CoV-2-induced NF-κB activation in RAW 264.7/NF-κB-luc cells (luciferase); format: cell-based, murine; conditions: same agents as in the RAW 264.7 uptake test

Row | Molecule | inhibition of SARS-CoV-2-induced NF-κB activation (percent inhibition, FIG. 5) [1] | inhibition of SARS-CoV-2 cellular uptake (percent inhibition, FIG. 7) [2] | inhibition of SARS-CoV-2-induced NF-κB activation (percent inhibition, FIG. 8) [3]
1 | Cn1c2ccccc2c2c3c(c4c5ccccc5n(CCC#N)c4c21)CNC3=O [Gö 6983, Gö 6976] | significantly (p<0.05) inhibited | significantly (p<0.05) inhibited | inhibited
2 | NC(N)=NC(=O)c1nc(Cl)c(N2CCCCCC2)nc1N [hexamethylene amiloride] | significantly (p<0.05) inhibited | significantly (p<0.05) inhibited | inhibited
3 | PRRAR peptide: PRRAR peptide from the heparin-binding motif of the S1 subunit of the SARS-CoV-2 spike protein (Pro681-Arg685) (UniProt P0DTC2 681-685, looked up, fragment) | – | significantly (p<0.05) inhibited | inhibited
4 | SPRRARSV peptide: SPRRARSV (Ser680-Val687, includes the PRRAR heparin-binding motif) from the S1 subunit of the SARS-CoV-2 spike protein | significantly (p<0.05) inhibited | – | –
5 | TAT peptide: amino acid sequence YGRKKRRQRRR, synthesized by PepScan | significantly (p<0.05) inhibited | – | –
6 | heparan sulfate | significantly (p<0.05) inhibited | significantly (p<0.05) inhibited | inhibited
7 | polyarginine: R8, amino acid sequence RRRRRRRR, synthesized by PepScan | significantly (p<0.05) inhibited | – | –
8 | B1 | significantly (p<0.05) inhibited | significantly (p<0.05) inhibited | inhibited
